Laboratory results published in patent publication US20260232768A1, “TREATMENT OF ATOPIC DERMATITIS WITH POLYETHYLENE GLYCOL-MODIFIED INTERLEUKIN 2, GLUCOCORTICOID AND HYALURONIC ACID” (priority 2023, published 2026).
Marks after values point to notes of the source that are not given here.

What was measured:
[1] = system: OVA induced atopic dermatitis (AD) mouse model; assay: OVA induced atopic dermatitis (AD) mouse model, skin inflammation status scoring; assay type: in vivo, BALB/c mice; details: AD model mice, topical patch for 3 consecutive days; total score 0-12; 6 mice per group
Procedure: 10 μg OVA was mixed with 2 mg of aluminum hydroxide in 200 μL of phosphate buffer (PBS) solution, intraperitoneally injected to sensitize mice, once every week (at day 0, 7 and 14), each mouse was injected 3 times, 200 μL each time. On day 14, mice were anesthetized using pentobarbital intraperitoneal injection. […] The OVA patch was prepared by wetting a 1.5×1.5 cm^2 sterile gauze in a solution of 1 mg/mL of OVA (dissolved in PBS) (approximately 100 μL of OVA solution), and was attached using a transparent dressing to the back skin after epilation and replaced daily for 3-7 days to develop dermatitis manifestation, and the status of the back skin of the mice was recorded photographically on day 4~5 after inducing mouse dermatitis (the dermatitis manifestation was most obvious), and the skin inflammation status was scored. […]
Skin inflammation status scores assess dermatitis severity clinically. The total score was 0 to 12, evaluated from four aspects, edema, erythema, scaling and erosion, respectively, an individual score was 0-3 (0, no; 1, mild; 2, moderate; 3, severe), and the final score was the sum of each individual term [SCHWARTZ C, et al. Spontaneous atopic dermatitis in mice with a defective skin barrier is independent of ILC2 and mediated by IL-1β.

[2] = system: CD25+FoxP3+ cells in spleen CD3+CD4+ lymphocytes and PD-1+ cells in CD3+CD4+CD25+FoxP3+ cells; assay: Intraperitoneal injection in physiological model mice, spleen Treg and PD-1 by flow cytometry; assay type: in vivo, BALB/c mice
Source text: We intraperitoneally injected PEG-IL-2 modified with non-branched PEG of different molecular weight sizes in physiological model mice, and detected FoxP3+ regulatory T cells and the expression of PD-1 in spleen cells on day 4.

| Compound | Dermatitis score (χ ± s) [1] | up-regulation of FoxP3+ regulatory T cells in spleen (in words) ([2]; detected on day 4) | expression of PD-1 by regulatory T cells (in words) ([2]; spleen, day 4) |
| --- | --- | --- | --- |
| CCCC1O[C@@H]2C[C@H]3[C@@H]4CCC5=CC(=O)C=C[C@]5(C)[C@H]4[C@@H](O)C[C@]3(C)[C@]2(C(=O)CO)O1 (stereo partly drawn) [Budesonide alone, budesonide] | 2.333 ± 1.211*^ | – | – |
| normal IL-2: recombinant human interleukin 2 not modified with PEG, SEQ ID NO: 1, 15 kD | – | did not up-regulate Tregs | can promote the expression of PD-1 |
